Laboratory results as given in PMC11352859, “Functionalized Congeners of 2H-Chromene P2Y6 Receptor Antagonists” (Cells, 2024).
“And” between values parts separate entries of the source, which are not always exact repeats. Identical values can stand only once. Like-named read-outs stand apart in the source and are kept apart here.

Columns and labels:
[1] = target: T1, hP2Y6R (Homo sapiens, UniProt Q15077); experiment: UDP (100 nM)-induced Ca2+ mobilization in hP2Y6R stably transfected 1321N1 astrocytoma cells; format: cell-based
T1 construct: expressed in transfected cells
Experimental: To screen for P2Y6R antagonist activity, PLC-mediated calcium mobilization assays were carried out using the recombinant human P2Y6R stably expressed in 1321N1 astrocytoma cells (hP2Y6R-1321N1) according to the previously published method. Briefly, the hP2Y6R-1321N1 cells were seeded on 96-well black plates and incubated overnight. The antagonists were pretreated along with the FLIPR dye (Calcium 6 assay kit, Molecular Devices, San Jose, CA, USA) containing 5 mM probenecid for 45 min, prior to agonist addition followed by an immediate intracellular Ca^2+ measurement. […] Here, probenecid was used as an organic anion transporter inhibitor to prevent the efflux of the dye into the extracellular environment. During incubation, the membrane permeable dye enters the cytoplasm and cleaves the acetoxymethyl protection to enable Ca^2+ binding. When the P2Y6R was activated by UDP, the increased calcium concentration was directly measured by intracellular changes in the fluorescence intensity with a Fluorescent Imaging Plate Reader (FLIPR^TETRA, Molecular Devices, San Jose, CA, USA).

[2] = tested on: 45 target sites (receptors, channels, and transporters); experiment: PDSP off-target binding screen at 45 target sites; set-up: species or system human; conditions: PDSP binding assays
Description: (§1) Table S2. Off-target screening (to replace table later). We thank Dr. Bryan L. Roth (Univ. North Carolina at Chapel Hill) and National Institute of Mental Health's Psychoactive Drug Screening Program (Contract # HHSN-271-2008-00025-C) for screening data. Reference: Besnard et al.
(§2) Procedures: https://pdsp.unc.edu/pdspweb/content/UNC-CH%20Protocol%20Book.pdf […]
(§3) nucleosides were found at the following sites (human unless noted): 5HT1A, 5HT1B, 5HT1D, […]
(§4) β3, BZP rat brain site, D1, D2, D3, D4, D5, GABAA, H1, H2, H3, H4, M1, M2, M5, δ-opioid receptor (DOR), κ-opioid receptor (KOR), μ-opioid receptor (MOR), σ1, σ2, DAT, NET, SERT. Ki values […]
(§5) Compound # PDSP # Receptor LogKi Ki (nM)

[3] = target: T2, α2A (Homo sapiens, UniProt P08913); experiment: PDSP binding assay, α2A
T2 construct: NIMH Psychoactive Drug Screening Program (PDSP)
T2 sequence (P08913 1-465): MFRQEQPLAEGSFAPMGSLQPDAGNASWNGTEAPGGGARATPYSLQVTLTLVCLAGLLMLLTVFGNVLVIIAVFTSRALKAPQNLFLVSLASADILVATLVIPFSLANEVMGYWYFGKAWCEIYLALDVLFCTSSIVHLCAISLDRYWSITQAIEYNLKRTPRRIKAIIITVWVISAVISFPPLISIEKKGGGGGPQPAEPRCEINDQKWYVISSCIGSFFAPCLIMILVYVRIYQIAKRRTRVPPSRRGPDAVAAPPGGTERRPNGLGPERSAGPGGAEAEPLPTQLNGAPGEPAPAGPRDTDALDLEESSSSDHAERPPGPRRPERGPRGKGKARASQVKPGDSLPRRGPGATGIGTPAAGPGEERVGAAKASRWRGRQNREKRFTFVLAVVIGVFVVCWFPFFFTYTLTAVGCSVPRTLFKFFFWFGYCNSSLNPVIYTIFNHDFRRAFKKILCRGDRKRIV
Description: as §1, §2, §3, §4, §5

[4] = target: T3, α2B (Homo sapiens, UniProt P18089); experiment: PDSP binding assay, α2B; conditions: mean, n = 2
T3 construct: NIMH Psychoactive Drug Screening Program (PDSP)
T3 sequence (P18089 1-450): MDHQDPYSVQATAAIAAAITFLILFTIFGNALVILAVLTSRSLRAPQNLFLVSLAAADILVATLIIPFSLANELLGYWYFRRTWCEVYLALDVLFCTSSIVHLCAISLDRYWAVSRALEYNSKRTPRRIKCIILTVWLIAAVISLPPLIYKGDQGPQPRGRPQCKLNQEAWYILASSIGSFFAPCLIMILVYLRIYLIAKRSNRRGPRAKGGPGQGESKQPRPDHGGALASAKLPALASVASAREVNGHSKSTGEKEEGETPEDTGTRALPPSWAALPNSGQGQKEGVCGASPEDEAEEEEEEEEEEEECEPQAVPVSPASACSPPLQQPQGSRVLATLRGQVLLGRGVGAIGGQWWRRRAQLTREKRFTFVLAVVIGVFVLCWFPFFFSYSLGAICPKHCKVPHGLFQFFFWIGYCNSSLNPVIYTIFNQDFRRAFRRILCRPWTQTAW
Description: as §1, §2, §3, §4, §5

[5] = target: T4, D4 (Homo sapiens, UniProt P21917); experiment: PDSP binding assay, D4; conditions: mean, n = 2
T4 construct: NIMH Psychoactive Drug Screening Program (PDSP)
Description: as §1, §2, §3, §4, §5

[6] = target: T5, D5 (Homo sapiens, UniProt P21918); experiment: PDSP binding assay, D5
T5 construct: NIMH Psychoactive Drug Screening Program (PDSP)
Description: as §1, §2, §3, §4, §5

[7] = target: T6, H1 (Homo sapiens, UniProt P35367); experiment: PDSP binding assay, H1; conditions: Table S2, single determinations; read-out: Ki (nM), H1
T6 construct: NIMH Psychoactive Drug Screening Program (PDSP)
Description: as §1, §2, §3, §4, §5

[8] = target: T7, H2 (Homo sapiens, UniProt P25021); experiment: PDSP binding assay, H2; conditions: mean, n = 2
T7 construct: NIMH Psychoactive Drug Screening Program (PDSP)
Description: as §1, §2, §3, §4, §5

[9] = target: T8, κ-opioid receptor (KOR) (Homo sapiens, UniProt P41145); experiment: PDSP binding assay, κ-opioid
T8 construct: NIMH Psychoactive Drug Screening Program (PDSP)
Description: as §1, §2, §3, §4, §5

[10] = target: T9, 5-HT1A (Homo sapiens, UniProt P08908); experiment: PDSP binding assay, 5-HT1A; conditions: Table S2, single determination
T9 construct: NIMH Psychoactive Drug Screening Program (PDSP)
Description: as §1, §2, §3, §4, §5

[11] = target: T10, D3 (Homo sapiens, UniProt P35462); experiment: PDSP binding assay, D3; conditions: Table S2, single determination
T10 construct: NIMH Psychoactive Drug Screening Program (PDSP)
Description: as §1, §2, §3, §4, §5

[12] = target: T11, D2 (Homo sapiens, UniProt P14416); experiment: PDSP binding assay, D2; conditions: Table S2, single determination
T11 construct: NIMH Psychoactive Drug Screening Program (PDSP)
Description: as §1, §2, §3, §4, §5

[13] = target: T12, SERT (Homo sapiens, UniProt P31645); experiment: PDSP binding assay, SERT; conditions: Table S2, single determination
T12 construct: NIMH Psychoactive Drug Screening Program (PDSP)
Description: as §1, §2, §3, §4, §5

T5 sequence (P21918 whole entry): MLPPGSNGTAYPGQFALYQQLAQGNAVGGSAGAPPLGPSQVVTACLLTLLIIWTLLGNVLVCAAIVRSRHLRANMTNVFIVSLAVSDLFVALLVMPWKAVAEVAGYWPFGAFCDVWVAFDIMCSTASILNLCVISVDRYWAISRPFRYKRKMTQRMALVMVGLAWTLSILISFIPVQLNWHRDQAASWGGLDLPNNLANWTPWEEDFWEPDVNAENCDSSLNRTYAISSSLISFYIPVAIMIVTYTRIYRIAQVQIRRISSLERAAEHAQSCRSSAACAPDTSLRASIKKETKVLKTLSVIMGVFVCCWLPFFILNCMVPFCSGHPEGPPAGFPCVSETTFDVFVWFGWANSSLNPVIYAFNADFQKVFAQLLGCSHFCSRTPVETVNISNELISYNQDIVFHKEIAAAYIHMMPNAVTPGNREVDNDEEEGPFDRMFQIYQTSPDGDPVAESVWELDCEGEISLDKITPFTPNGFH
T1 sequence (Q15077 whole entry): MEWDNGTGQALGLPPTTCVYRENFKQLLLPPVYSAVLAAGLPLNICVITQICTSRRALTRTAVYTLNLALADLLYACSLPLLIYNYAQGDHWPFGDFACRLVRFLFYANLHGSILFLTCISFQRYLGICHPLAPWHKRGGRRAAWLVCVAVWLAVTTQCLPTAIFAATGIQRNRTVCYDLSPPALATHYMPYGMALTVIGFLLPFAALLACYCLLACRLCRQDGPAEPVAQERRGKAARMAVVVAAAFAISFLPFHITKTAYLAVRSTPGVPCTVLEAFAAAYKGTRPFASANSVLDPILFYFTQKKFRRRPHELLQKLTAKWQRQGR
T8 sequence (P41145 whole entry): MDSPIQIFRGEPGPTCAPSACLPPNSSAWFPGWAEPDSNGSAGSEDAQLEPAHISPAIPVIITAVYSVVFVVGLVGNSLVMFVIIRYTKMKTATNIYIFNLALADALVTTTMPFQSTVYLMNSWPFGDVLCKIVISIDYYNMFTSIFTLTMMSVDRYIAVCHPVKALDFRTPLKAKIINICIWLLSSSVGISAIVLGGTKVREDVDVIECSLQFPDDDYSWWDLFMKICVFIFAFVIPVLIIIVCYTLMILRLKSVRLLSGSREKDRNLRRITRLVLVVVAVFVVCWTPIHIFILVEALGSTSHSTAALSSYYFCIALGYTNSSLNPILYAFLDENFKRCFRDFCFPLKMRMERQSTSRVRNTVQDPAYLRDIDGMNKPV
T6 sequence (P35367 whole entry): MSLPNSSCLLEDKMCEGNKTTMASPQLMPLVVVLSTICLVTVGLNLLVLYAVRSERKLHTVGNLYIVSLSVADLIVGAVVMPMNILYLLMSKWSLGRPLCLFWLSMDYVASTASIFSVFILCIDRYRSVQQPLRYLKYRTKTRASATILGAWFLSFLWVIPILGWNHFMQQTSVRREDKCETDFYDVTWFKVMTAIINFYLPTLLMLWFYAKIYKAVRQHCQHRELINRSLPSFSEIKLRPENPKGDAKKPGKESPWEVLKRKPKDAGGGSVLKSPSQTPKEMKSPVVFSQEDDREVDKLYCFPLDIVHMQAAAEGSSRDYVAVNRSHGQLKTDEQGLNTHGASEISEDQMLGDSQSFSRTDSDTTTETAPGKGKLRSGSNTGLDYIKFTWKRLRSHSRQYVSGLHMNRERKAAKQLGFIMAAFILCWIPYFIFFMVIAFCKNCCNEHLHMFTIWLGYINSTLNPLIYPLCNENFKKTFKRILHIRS
T10 sequence (P35462 whole entry): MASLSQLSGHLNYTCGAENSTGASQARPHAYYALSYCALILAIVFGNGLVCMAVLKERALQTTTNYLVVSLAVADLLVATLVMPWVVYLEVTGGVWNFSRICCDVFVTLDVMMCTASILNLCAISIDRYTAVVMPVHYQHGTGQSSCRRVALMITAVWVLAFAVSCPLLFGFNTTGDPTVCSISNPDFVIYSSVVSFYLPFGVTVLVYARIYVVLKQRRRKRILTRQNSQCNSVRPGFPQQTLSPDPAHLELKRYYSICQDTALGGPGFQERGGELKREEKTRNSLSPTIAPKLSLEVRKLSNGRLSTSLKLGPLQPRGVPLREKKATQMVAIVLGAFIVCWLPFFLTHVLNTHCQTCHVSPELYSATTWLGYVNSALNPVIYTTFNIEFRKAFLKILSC
T7 sequence (P25021 whole entry): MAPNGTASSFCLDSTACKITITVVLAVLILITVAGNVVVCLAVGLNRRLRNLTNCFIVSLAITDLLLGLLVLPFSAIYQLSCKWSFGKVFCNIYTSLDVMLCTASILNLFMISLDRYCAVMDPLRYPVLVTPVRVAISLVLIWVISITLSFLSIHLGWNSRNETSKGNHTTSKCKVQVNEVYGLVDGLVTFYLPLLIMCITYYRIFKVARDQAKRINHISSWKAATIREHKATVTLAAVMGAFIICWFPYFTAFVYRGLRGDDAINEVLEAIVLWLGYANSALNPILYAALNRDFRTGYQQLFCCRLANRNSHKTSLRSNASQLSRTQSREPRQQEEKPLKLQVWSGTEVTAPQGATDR
T11 sequence (P14416 whole entry): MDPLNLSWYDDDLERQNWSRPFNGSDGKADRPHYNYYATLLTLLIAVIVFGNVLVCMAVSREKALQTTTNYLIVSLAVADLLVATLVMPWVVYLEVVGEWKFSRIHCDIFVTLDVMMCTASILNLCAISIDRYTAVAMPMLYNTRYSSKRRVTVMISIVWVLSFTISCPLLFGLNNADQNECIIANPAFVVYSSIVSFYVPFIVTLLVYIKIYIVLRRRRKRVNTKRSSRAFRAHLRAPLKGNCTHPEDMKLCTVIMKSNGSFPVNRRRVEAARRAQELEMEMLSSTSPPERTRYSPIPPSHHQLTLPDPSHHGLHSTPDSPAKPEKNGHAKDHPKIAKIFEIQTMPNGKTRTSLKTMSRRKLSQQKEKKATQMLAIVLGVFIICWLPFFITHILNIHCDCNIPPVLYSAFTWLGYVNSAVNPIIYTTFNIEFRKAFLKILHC
T12 sequence (P31645 whole entry): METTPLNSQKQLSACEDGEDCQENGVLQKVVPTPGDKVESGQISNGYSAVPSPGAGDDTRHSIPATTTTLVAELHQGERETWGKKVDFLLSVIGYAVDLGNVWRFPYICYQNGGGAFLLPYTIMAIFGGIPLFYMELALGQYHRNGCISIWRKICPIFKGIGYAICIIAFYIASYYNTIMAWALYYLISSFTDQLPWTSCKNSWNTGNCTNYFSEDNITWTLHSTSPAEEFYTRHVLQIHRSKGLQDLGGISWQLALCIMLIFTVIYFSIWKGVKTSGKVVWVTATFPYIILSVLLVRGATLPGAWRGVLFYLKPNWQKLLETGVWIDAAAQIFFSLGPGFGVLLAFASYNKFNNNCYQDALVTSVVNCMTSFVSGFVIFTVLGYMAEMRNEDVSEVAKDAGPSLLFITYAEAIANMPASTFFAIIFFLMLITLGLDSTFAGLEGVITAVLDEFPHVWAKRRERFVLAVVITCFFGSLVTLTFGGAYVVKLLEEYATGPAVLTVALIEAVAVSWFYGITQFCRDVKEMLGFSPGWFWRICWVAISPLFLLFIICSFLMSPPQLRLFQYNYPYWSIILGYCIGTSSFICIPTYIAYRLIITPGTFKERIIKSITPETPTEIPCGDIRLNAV
T9 sequence (P08908 whole entry): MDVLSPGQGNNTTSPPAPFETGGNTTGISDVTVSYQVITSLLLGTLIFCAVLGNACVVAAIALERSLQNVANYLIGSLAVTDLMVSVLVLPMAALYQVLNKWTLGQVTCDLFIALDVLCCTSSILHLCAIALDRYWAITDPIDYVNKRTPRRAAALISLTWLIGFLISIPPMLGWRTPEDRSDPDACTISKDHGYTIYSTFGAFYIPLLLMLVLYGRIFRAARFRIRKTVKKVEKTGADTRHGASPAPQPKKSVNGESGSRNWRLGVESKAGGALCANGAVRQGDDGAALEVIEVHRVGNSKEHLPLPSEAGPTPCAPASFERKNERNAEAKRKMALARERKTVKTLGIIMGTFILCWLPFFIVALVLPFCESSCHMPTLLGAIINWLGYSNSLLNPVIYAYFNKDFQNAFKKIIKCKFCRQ
T4 sequence (P21917 whole entry): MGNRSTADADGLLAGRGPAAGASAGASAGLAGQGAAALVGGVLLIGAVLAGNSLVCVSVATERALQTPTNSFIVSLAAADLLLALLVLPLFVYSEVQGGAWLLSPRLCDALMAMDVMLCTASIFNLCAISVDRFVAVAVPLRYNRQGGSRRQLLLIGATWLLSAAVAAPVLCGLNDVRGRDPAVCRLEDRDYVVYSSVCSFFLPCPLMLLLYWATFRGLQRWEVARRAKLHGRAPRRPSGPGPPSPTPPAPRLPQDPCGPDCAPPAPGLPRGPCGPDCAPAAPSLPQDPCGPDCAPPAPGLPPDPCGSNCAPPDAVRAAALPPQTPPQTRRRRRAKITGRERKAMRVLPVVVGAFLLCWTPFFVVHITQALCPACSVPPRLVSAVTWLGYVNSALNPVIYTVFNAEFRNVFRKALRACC

For `CC(C)(C)OC(=O)NCCCCCCCC#Cc1ccc2c(c1)C=C([N+](=O)[O-])C(C(F)(F)F)O2` (centres unmarked) [Compound 30, tert-Butyl (9-(3-nitro-2-(trifluoromethyl)-2H-chromen-6-yl)non-8-yn-1-yl)carbamate], the IC50 ([1]; UDP 100 nM, 3–4 independent triplicate determinations, read-out: IC50, hP2Y6R (Mean ± SEM)) was 162 ± 13 nM, the “fold greater affinity than the corresponding pivaloyl derivative” value ([1]; hP2Y6R IC50 ratio) was 107 fold and the “off-target interactions at 45 target sites” value [2] was “seven off-target interactions”. For the same molecule, the Ki ([3]; PDSP, mean, n = 2, read-out: Ki, α2A) was 86 nM, the Ki ([3]; Table S2, single determinations, read-out: Ki (nM), Alpha2A) was 80.2 nM and 90.7 nM and the Ki [4] was 170 nM. For the same molecule, the Ki [5] was 3100 nM, the Ki ([6]; PDSP, mean, n = 2, read-out: Ki, D5) was 780 nM and the Ki ([6]; Table S2, single determinations, read-out: Ki (nM), D5) was 643 nM and 911 nM. The Ki [7] was 630 nM and 366 nM, the Ki [8] was 500 nM and the Ki ([9]; PDSP, mean, n = 2, read-out: Ki, κ-opioid) was 2200 nM. For the same molecule, the Ki ([9]; Table S2, single determination, read-out: Ki (nM), KOR) was 1400 nM, the Ki [10] was > 10000 nM and the Ki [11] was > 10000 nM. The Ki [12] was > 10000 nM and the Ki [13] was > 10000 nM.
